Results: doi:10.1101/2025.02.11.637513v1 (bioRxiv, 2025)
Non-standard residues stand in square brackets, D forms with d. No end group written: not given here. *: point of attachment. Bip = N[C@@H](Cc1ccc(-c2ccccc2)cc1)C(=O)O; Phe(4-Cl) = N[C@@H](Cc1ccc(Cl)cc1)C(=O)O; 1Nal = N[C@@H](Cc1cccc2ccccc12)C(=O)O; Met(O2) = CS(=O)(=O)CC[C@H](N)C(=O)O; Tle = CC(C)(C)[C@H](N)C(=O)O; Abu = CC[C@H](N)C(=O)O; Bn = c1ccc(C*)cc1

Key:
Test in all cases: tetrapeptide-ACC substrate cleavage kinetics
Type in all cases: biochemical
human caspase-1 = target: T1, human caspase-1 (Homo sapiens, UniProt P29466); settings: Ac-P4-P3-P2-Asp-ACC substrate, 0.05-500 μM, 2-15 nM enzyme, 37°C, triplicate
T1 sequence (P29466 120-297 limits assumed): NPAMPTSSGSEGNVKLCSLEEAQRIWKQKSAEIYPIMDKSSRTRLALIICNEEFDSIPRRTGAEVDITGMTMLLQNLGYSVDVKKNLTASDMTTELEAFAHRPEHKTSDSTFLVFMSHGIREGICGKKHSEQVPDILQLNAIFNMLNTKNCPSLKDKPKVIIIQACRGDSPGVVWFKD
T1 sequence (P29466 317-404 limits assumed): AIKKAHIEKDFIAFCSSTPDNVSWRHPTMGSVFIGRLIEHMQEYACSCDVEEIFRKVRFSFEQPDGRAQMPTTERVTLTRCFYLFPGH

human caspase-4 = target: T2, human caspase-4 (Homo sapiens, UniProt P49662); settings: Ac-P4-P3-P2-Asp-ACC substrate, 0.05-500 μM, 35-200 nM enzyme, 37°C, triplicate
T2 sequence (P49662 81-270 limits assumed): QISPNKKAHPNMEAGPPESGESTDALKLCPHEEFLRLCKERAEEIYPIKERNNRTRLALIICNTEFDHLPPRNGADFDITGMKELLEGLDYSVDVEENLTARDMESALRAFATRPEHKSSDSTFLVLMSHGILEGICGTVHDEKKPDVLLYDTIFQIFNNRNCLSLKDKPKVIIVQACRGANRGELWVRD
T2 sequence (P49662 290-377 limits assumed): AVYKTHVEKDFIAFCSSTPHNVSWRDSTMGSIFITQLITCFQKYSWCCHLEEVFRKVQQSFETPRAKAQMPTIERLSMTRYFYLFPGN

human caspase-5 = target: T3, human caspase-5 (Homo sapiens, UniProt P51878); settings: Ac-P4-P3-P2-Asp-ACC substrate, 0.05-500 μM, 20-250 nM enzyme, 37°C, triplicate
T3 sequence (P51878 137-327 limits assumed): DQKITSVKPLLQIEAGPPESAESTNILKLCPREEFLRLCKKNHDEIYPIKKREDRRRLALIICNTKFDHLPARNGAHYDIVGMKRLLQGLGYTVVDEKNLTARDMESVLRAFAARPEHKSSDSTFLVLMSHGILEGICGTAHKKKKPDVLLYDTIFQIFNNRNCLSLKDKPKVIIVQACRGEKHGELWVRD
T3 sequence (P51878 347-434 limits assumed): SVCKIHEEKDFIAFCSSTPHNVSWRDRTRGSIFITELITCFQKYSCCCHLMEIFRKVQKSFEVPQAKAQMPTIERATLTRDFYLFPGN

human caspase-3 = target: T4, human caspase-3 (Homo sapiens, UniProt P42574); settings: Ac-P4-P3-P2-Asp-ACC substrate, 0.05-500 μM, 3-35 nM enzyme, 37°C, triplicate
T4 sequence (P42574 29-175 limits assumed): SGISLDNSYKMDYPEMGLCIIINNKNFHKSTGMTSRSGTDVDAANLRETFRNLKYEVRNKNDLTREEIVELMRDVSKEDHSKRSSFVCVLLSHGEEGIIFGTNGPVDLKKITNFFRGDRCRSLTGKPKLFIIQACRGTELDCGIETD
T4 sequence (P42574 176-277 limits assumed): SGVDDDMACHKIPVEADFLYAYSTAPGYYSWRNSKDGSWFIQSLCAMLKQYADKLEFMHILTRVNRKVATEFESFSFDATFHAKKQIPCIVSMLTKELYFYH

human caspase-7 = target: T5, human caspase-7 (Homo sapiens, UniProt P55210); settings: Ac-P4-P3-P2-Asp-ACC substrate, 0.05-500 μM, 40-400 nM enzyme, 37°C, triplicate
T5 sequence (P55210 24-198 limits assumed): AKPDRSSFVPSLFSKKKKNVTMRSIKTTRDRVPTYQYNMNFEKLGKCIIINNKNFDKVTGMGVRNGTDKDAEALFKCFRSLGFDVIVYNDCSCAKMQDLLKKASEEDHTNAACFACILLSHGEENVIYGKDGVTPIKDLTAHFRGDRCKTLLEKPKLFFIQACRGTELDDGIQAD
T5 sequence (P55210 207-303 limits assumed): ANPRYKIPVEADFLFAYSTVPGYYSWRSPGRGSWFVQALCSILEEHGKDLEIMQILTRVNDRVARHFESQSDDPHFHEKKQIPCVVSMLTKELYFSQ

human caspase-8 = human caspase-8 (Homo sapiens, UniProt Q14790); settings: Ac-P4-P3-P2-Asp-ACC substrate, 0.05-500 μM, 6-42 nM enzyme, 37°C, triplicate
human caspase-9 = target: T6, human caspase-9 (Homo sapiens, UniProt P55211); settings: Ac-P4-P3-P2-Asp-ACC substrate, 0.05-500 μM, 20-150 nM enzyme, 37°C, triplicate
T6 sequence (P55211 1-315 limits assumed): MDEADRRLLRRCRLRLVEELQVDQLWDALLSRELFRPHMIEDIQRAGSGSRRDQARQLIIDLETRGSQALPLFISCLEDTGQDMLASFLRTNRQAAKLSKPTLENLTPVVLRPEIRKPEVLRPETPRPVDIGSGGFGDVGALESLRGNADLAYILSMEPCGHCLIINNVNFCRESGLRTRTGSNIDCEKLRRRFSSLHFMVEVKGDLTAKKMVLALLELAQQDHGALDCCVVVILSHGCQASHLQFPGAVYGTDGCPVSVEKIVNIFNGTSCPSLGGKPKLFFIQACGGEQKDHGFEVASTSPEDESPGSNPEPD
T6 sequence (P55211 331-416 limits assumed): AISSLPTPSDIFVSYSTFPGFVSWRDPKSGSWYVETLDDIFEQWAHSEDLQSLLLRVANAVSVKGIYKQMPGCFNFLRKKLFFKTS

human caspase-8, sequence (Q14790 217-374 limits assumed): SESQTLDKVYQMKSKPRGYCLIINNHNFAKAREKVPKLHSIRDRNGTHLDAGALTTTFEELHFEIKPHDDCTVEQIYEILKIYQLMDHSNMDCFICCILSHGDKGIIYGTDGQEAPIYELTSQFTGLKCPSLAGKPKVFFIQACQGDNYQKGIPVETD
human caspase-8, sequence (Q14790 385-479 limits assumed): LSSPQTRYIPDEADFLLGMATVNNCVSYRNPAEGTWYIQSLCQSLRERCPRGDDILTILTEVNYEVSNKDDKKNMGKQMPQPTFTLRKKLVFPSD

| Substance | kcat/KM caspase-1 (human caspase-1) | kcat/KM caspase-4 (human caspase-4) | kcat/KM caspase-5 (human caspase-5) | kcat/KM caspase-3 (human caspase-3) | kcat/KM caspase-7 (human caspase-7) | kcat/KM caspase-8 (human caspase-8) | kcat/KM caspase-9 (human caspase-9) |
| --- | --- | --- | --- | --- | --- | --- | --- |
| Pro-Met-His-Asp | 13 200 M^-1s^-1 | 460 M⁻¹ s⁻¹ | 130 M⁻¹ s⁻¹ | 3 160 M^-1s^-1 | 100 M⁻¹ s⁻¹ | 3 570 M^-1s^-1 | 13 000 M^-1s^-1 |
| Tyr-Tyr(2,6Cl2Bzl)-His-Asp | 8 700 M^-1s^-1 | < 10 M⁻¹ s⁻¹ | 1 560 M^-1s^-1 | 1 240 M^-1s^-1 | 50 M⁻¹ s⁻¹ | 1 050 M^-1s^-1 | 310 M⁻¹ s⁻¹ |
| [Tle][Bip]HD | 10 900 M^-1s^-1 | 2 820 M^-1s^-1 | 5 280 M^-1s^-1 | 16 920 M^-1s^-1 | 160 M⁻¹ s⁻¹ | 11 700 M^-1s^-1 | 8 430 M^-1s^-1 |
| [Tle][Phe(4-Cl)]HD | 13 300 M^-1s^-1 | 2 500 M^-1s^-1 | 7 360 M^-1s^-1 | 21 330 M^-1s^-1 | 160 M⁻¹ s⁻¹ | 10 600 M^-1s^-1 | 9 100 M^-1s^-1 |
| Tyr-Val-His-Asp | 140 500 M^-1s^-1 | 2 920 M^-1s^-1 | 9 640 M^-1s^-1 | 1 530 M^-1s^-1 | 150 M⁻¹ s⁻¹ | 2 550 M^-1s^-1 | 15 800 M^-1s^-1 |
| Tyr-Val-Lys(tfa)-Asp | 28 100 M^-1s^-1 | 660 M⁻¹ s⁻¹ | 1 360 M^-1s^-1 | 1 430 M^-1s^-1 | 200 M⁻¹ s⁻¹ | 1 260 M^-1s^-1 | 250 M⁻¹ s⁻¹ |
| W[Met(O2)]HD | 547 600 M^-1s^-1 | 9 620 M^-1s^-1 | 15 430 M^-1s^-1 | 4 970 M^-1s^-1 | 60 M⁻¹ s⁻¹ | 2 380 M^-1s^-1 | 6 700 M^-1s^-1 |
| Pro-Bip-His(Bzl)-Asp | 13 800 M^-1s^-1 | 590 M⁻¹ s⁻¹ | 310 M⁻¹ s⁻¹ | 1 260 M^-1s^-1 | 40 M⁻¹ s⁻¹ | 2 750 M^-1s^-1 | 6 990 M^-1s^-1 |
| VY(Bn)HD | 7 300 M^-1s^-1 | 350 M⁻¹ s⁻¹ | 660 M⁻¹ s⁻¹ | 6 900 M^-1s^-1 | 180 M⁻¹ s⁻¹ | 2 610 M^-1s^-1 | 1 790 M^-1s^-1 |
| Asp-Glu-Val-Asp | 280 M⁻¹ s⁻¹ | 260 M⁻¹ s⁻¹ | 180 M⁻¹ s⁻¹ | – | 85 000 M^-1s^-1 | 73 200 M^-1s^-1 | 280 M⁻¹ s⁻¹ |
| Tyr-Gln-Pro-Asp | 47 200 M^-1s^-1 | 740 M⁻¹ s⁻¹ | 1 590 M^-1s^-1 | 1 920 M^-1s^-1 | 300 M⁻¹ s⁻¹ | 2 170 M^-1s^-1 | 350 M⁻¹ s⁻¹ |
| Val-Asp-His-Asp | 6 950 M^-1s^-1 | 880 M⁻¹ s⁻¹ | 4 830 M^-1s^-1 | 19 860 M^-1s^-1 | 910 M⁻¹ s⁻¹ | 16 670 M^-1s^-1 | 6 220 M^-1s^-1 |
| [1Nal]Q[Abu]D | 168 100 M^-1s^-1 | 2 190 M^-1s^-1 | 4 640 M^-1s^-1 | 1 660 M^-1s^-1 | 220 M⁻¹ s⁻¹ | 4 420 M^-1s^-1 | 100 M⁻¹ s⁻¹ |
| Val-Tyr(2,6Cl2Bzl)-His-Asp | < 10 M⁻¹ s⁻¹ | 100 M⁻¹ s⁻¹ | – | 3 400 M^-1s^-1 | 80 M⁻¹ s⁻¹ | 750 M⁻¹ s⁻¹ | 480 M⁻¹ s⁻¹ |
| Tyr-Gln-2Aoc-Asp | – | 1 100 M^-1s^-1 | 2 860 M^-1s^-1 | 2 580 M^-1s^-1 | 190 M⁻¹ s⁻¹ | 4 970 M^-1s^-1 | 310 M⁻¹ s⁻¹ |
| Phe(2Cl)-Glu-Pip-Asp | – | 9 760 M^-1s^-1 | 1 830 M^-1s^-1 | 103 000 M^-1s^-1 | 10 730 M^-1s^-1 | 11 430 M^-1s^-1 | 2 300 M^-1s^-1 |
